Assay results: patent US4537776A, “Penetrating topical pharmaceutical compositions containing N-(2-hydroxyethyl) pyrrolidone” (priority 1983, dated 1985)

Test: Penetration study, Franz diffusion apparatus, human skin (*)
Assay type: in vitro ADME
Details: Example 8; for Reduction of penetration on addition of the compound (in words): results similar to octanoic acid (reduces penetration by 50%)
Protocol: The following Penetration Studies carried out in the following manner. […] A normal saline solution is added to the lower diffusion cell, abutting the subcutaneous side of the skin. The test composition (comprising a solution of active or actives added to the carrier at the indicated formulation in a conventional manner by thoroughly mixing) is added to the diffusion cell abutting the epidermal side of the skin.
This cell assembly is kept at a constant temperature of about 31° C. At appropriate or desired intervals (these are the time designations given in the following examples) each diffusion cell assembly is opened and the diffusate from the cell abutting the subcutaneous side of the skin is withdrawn. Drug actives in a diffusate is measured using standard analytical techniques. Each trial is run on a separate sample of skin.

SMILES	Reduction of penetration on addition of the compound (in words)	Reduction of penetration on addition of the compound (added to 1% Triamcinolone in Propylene Glycol + 2% C14 OH, human skin, 0-72 hrs.) [%]
CCCCCCCCCCCCCCCCO [cetyl alcohol]	Substantially similar results	
CCCCCCCCCCCCCCCCCCO [stearyl alcohol]	Substantially similar results	
CCCCCCCCCC(=O)O [decanoic acid]	Substantially similar results	
CCCCCCCC(=O)O [octanoic acid]		50
